30 compounds from patent publication US8394952B2 (Vertex Pharmaceuticals Incorporated, priority 2006, dated 2013) can be followed below.

Some results are limits rather than exact numbers.

Plk1, sequence (P53350 20-338): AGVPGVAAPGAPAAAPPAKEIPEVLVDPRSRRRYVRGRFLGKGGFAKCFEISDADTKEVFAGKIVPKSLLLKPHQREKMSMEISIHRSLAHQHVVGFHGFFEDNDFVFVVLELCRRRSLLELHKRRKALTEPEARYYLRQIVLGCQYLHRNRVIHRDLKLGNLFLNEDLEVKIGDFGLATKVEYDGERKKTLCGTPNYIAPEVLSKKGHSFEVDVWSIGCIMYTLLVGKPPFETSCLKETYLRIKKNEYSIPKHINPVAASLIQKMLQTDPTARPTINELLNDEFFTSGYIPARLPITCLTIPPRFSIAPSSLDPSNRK

This assay concerns the target Plk1 (Homo sapiens, UniProt P53350). As to the kind of experiment: biochemical.
For `COc1cc(C(=O)NCCN2CCOCC2)ccc1Nc1ncc2c(n1)N(C1CCCC1)CC(C)(C)C(=O)N2C` [Compound I-33, 4-(9-cyclopentyl-6,7,8,9-tetrahydro-5,7,7-trimethyl-6-oxo-5H-pyrimido[4,5-b][1,4]diazepin-2-ylamino)-3-methoxy-N-(2-morpholinoethyl)benzamide], the Ki (as a rule, the dissociation constant of the complex between target and ligand, obtained from inhibition or displacement) was less than 10 nM.
For `COc1cc(C(=O)NCCN2CCCC2)ccc1Nc1ncc2c(n1)N(C1CCCC1)CC(C)(C)C(=O)N2C` [Compound I-34, 4-(9-cyclopentyl-6,7,8,9-tetrahydro-5,7,7-trimethyl-6-oxo-5H-pyrimido[4,5-b][1,4]diazepin-2-ylamino)-3-methoxy-N-(2-(pyrrolidin-1-yl)ethyl)benzamide] the value was less than 10 nM; for `CNC(=O)c1ccc(Nc2ncc3c(n2)N(C(C)C)CC(C)(C)C(=O)N3C)c(OC)c1` [Compound I-35, 4-(6,7,8,9-tetrahydro-9-isopropyl-5,7,7-trimethyl-6-oxo-5H-pyrimido[4,5-b][1,4]diazepin-2-ylamino)-3-methoxy-N-methylbenzamide], 10 to 100 nM; for `CNC(=O)c1ccc(Nc2ncc3c(n2)N(C2CCCC2)CC(C)(C)c2nncn2-3)c(OC)c1` [Compound I-36, 4-(6-Cyclopentyl-4,4-dimethyl-5,6-dihydro-4H-2,3,6,7,9,10b-hexaazabenzo[e]azulen-8-ylamino)-3-methoxy-N-methylbenzamide], less than 10 nM.
The compound `COc1cc(C(=O)NCCN2CC[C@H](F)C2)ccc1Nc1ncc2c(n1)N(C1CCCC1)CC(C)(C)C(=O)N2C` [Compound I-37, 4-(9-cyclopentyl-6,7,8,9-tetrahydro-5,7,7-trimethyl-6-oxo-5H-pyrimido[4,5-b][1,4]diazepin-2-ylamino)-N-(2-((S)-3-fluoropyrrolidin-1-yl)ethyl)-3-methoxybenzamide] showed an inhibitory constant (Ki) of less than 10 nM.
The figure for `COc1cc(C(=O)NCCN2CCC2)ccc1Nc1ncc2c(n1)N(C1CCCC1)CC(C)(C)C(=O)N2C` [Compound I-38] is less than 10 nM.
`COc1cc(C(=O)NCCOC(=O)N2CC[C@@H](F)C2)ccc1Nc1ncc2c(n1)N(C1CCCC1)CC(C)(C)C(=O)N2C` [Compound I-39, (R)-3-Fluoro-pyrrolidine-1-carboxylic acid 2-[4-(9-cyclopentyl-5,7,7-trimethyl-6-oxo-6,7,8,9-tetrahydro-5H-pyrimido[4,5-b][1,4]diazepin-2-ylamino)-3-methoxybenzoylamino]-ethyl ester]: the inhibition constant (Ki) was less than 10 nM.
For `CNC(=O)c1ccc(Nc2ncc3c(n2)N(c2ccccc2)CC(C)(C)C(=O)N3C)c(OC)c1` [Compound I-40, 4-(6,7,8,9-tetrahydro-5,7,7-trimethyl-6-oxo-9-phenyl-5H-pyrimido[4,5-b][1,4]diazepin-2-ylamino)-3-methoxy-N-methylbenzamide] the value was 10 to 100 nM; for `CNC(=O)c1ccc(Nc2ncc3c(n2)N(C2CCCC2)CCc2nncn2-3)c(OC)c1` [Compound I-42, 4-(6-Cyclopentyl-5,6-dihydro-4H-2,3,6,7,9,10b-hexaaza-benzo[e]azulen-8-ylamino)-3-methoxy-N-methylbenzamide], 10 to 100 nM.
For the compound `CN1C(=O)C(C)(C)CN(C2CCCC2)c2nc(Nc3ccc4nc[nH]c4c3)ncc21` [Compound I-43, 2-(1H-benzo[d]imidazol-6-ylamino)-9-cyclopentyl-8,9-dihydro-5,7,7-trimethyl-5H-pyrimido[4,5-b][1,4]diazepin-6(7H)-one], the Ki lay within 10 to 100 nM.
On to `CN1C(=O)C(C)(C)CN(C2CCCC2)c2nc(Nc3ccc4ncsc4c3)ncc21` [Compound I-44, 2-(benzo[d]thiazol-6-ylamino)-9-cyclopentyl-8,9-dihydro-5,7,7-trimethyl-5H-pyrimido[4,5-b][1,4]diazepin-6(7H)-one], for which the Ki fell in the range of 10 to 100 nM.
Consider `CN1C(=O)C(C)(C)CN(C2CCCC2)c2nc(Nc3ccc4c(c3)CC(=O)N4)ncc21` [Compound I-45, 2-(2-oxoindolin-5-ylamino)-9-cyclopentyl-8,9-dihydro-5,7,7-trimethyl-5H-pyrimido[4,5-b][1,4]diazepin-6(7H)-one], for which the Ki lay in the range of 10 to 100 nM.
As to `CNC(=O)c1cccc(Nc2ncc3c(n2)N(C2CCCC2)CC(C)(C)C(=O)N3C)c1` [Compound I-46, 3-(9-cyclopentyl-6,7,8,9-tetrahydro-5,7,7-trimethyl-6-oxo-5H-pyrimido[4,5-b][1,4]diazepin-2-ylamino)-N-methylbenzamide], the Ki fell in the range of 10 to 100 nM.
For `CN1C(=O)C(C)(C)CN(C2CCCC2)c2nc(Nc3ccc4cn[nH]c4c3)ncc21` [Compound I-47, 2-(1H-indazo-6-ylamino)-9-cyclopentyl-8,9-dihydro-5,7,7-trimethyl-5H-pyrimido[4,5-b][1,4]diazepin-6(7H)-one] the value was less than 10 nM; for `CN1C(=O)C(C)(C)CN(C2CCCC2)c2nc(Nc3ccc(-n4ccnc4)cc3)ncc21` [Compound I-48, 2-(4-(1H-imidazol-1-yl)phenylamino)-9-cyclopentyl-8,9-dihydro-5,7,7-trimethyl-5H-pyrimido[4,5-b][1,4]diazepin-6(7H)-one], less than 10 nM; for `CN1C(=O)C(C)(C)CN(C2CCCC2)c2nc(Nc3ccc(-n4cncn4)cc3)ncc21` [Compound I-49, 2-(4-(1H-1,2,4-triazol-1-yl)phenylamino)-9-cyclopentyl-8,9-dihydro-5,7,7-trimethyl-5H-pyrimido[4,5-b][1,4]diazepin-6(7H)-one], 10 to 100 nM.
Compound `CNC(=O)c1ccc(Nc2ncc3c(n2)N(C2CCCC2)CC(C)(C)C(=O)N3C)c(OC(C)C)c1` [Compound I-50, 4-(9-cyclopentyl-6,7,8,9-tetrahydro-5,7,7-trimethyl-6-oxo-5H-pyrimido[4,5-b][1,4]diazepin-2-ylamino)-3-isopropoxy-N-methylbenzamide] yielded an inhibition constant (Ki) of 10 to 100 nM.
The compound `CC(C)Oc1cc(C(=O)NC2CCN(C)CC2)ccc1Nc1ncc2c(n1)N(C1CCCC1)CC(C)(C)C(=O)N2C` [Compound I-51, 4-(9-cyclopentyl-6,7,8,9-tetrahydro-5,7,7-trimethyl-6-oxo-5H-pyrimido[4,5-b][1,4]diazepin-2-ylamino)-3-isopropoxy-N-(1-methylpiperidin-4-yl)benzamide] gave a Ki of less than 10 nM.
The figure for `COc1cc(C(=O)NC2CN(C(C)C)C2)ccc1Nc1ncc2c(n1)N(C1CCCC1)CC(C)(C)C(=O)N2C` [Compound I-52, 4-(9-cyclopentyl-6,7,8,9-tetrahydro-5,7,7-trimethyl-6-oxo-5H-pyrimido[4,5-b][1,4]diazepin-2-ylamino)-N-(1-isopropylazetidin-3-yl)-3-methoxybenzamide] is less than 10 nM; for `COc1cc(C(=O)NC2CN(CC3CC3)C2)ccc1Nc1ncc2c(n1)N(C1CCCC1)CC(C)(C)C(=O)N2C` [Compound I-53, 4-(9-cyclopentyl-6,7,8,9-tetrahydro-5,7,7-trimethyl-6-oxo-5H-pyrimido[4,5-b][1,4]diazepin-2-ylamino)-N-(1-(cyclopropylmethyl)azetidin-3-yl)-3-methoxybenzamide] it is less than 10 nM.
For `CNC(=O)c1ccc(Nc2ncc3c(n2)N(C2CCOCC2)CC(C)(C)C(=O)N3C)c(OC)c1` [Compound I-56, 4-(6,7,8,9-tetrahydro-9-(tetrahydro-2H-pyran-4-yl)-5,7,7-trimethyl-6-oxo-5H-pyrimido[4,5-b][1,4]diazepin-2-ylamino)-3-methoxy-N-methylbenzamide], the Ki was 10 to 100 nM.
The figure for `CNC(=O)c1ccc(Nc2ncc3c(n2)N(CC2CC2)CC(C)(C)C(=O)N3C)c(OC)c1` [Compound I-58, 4-(9-(cyclopropylmethyl)-6,7,8,9-tetrahydro-5,7,7-trimethyl-6-oxo-5H-pyrimido[4,5-b][1,4]diazepin-2-ylamino)-3-methoxy-N-methylbenzamide] is less than 10 nM.
As for `COc1cc(C(=O)NC2CCN(CC3CC3)CC2)ccc1Nc1ncc2c(n1)N(C1CCCC1)CC(C)(C)C(=O)N2C` [Compound I-59, 4-(9-cyclopentyl-6,7,8,9-tetrahydro-5,7,7-trimethyl-6-oxo-5H-pyrimido[4,5-b][1,4]diazepin-2-ylamino)-N-(1-(cyclopropylmethyl)piperidin-4-yl)-3-methoxybenzamide], the Ki was less than 10 nM.
As for `CNC(=O)c1ccc(Nc2ncc3c(n2)N(C2CCCC2)CC2(CCC2)C(=O)N3C)c(OC)c1` [Compound I-60, 4-(9′-cyclopentyl-5′-methyl-6′-oxo-5′,6′,8′,9′-tetrahydrospiro[cyclobutane-1,7′-pyrimido[4,5-b][1,4]diazepine]-2′-ylamino)-3-methoxy-N-methylbenzamide], the Ki is less than 10 nM.
In the case of `CNC(=O)c1ccc(Nc2ncc3c(n2)N(C2CCCC2)CC2(CC2)C(=O)N3C)c(OC)c1` [Compound I-62, 4-(9′-cyclopentyl-5′-methyl-6′-oxo-5′,6′,8′,9′-tetrahydrospiro[cyclopropane-1,7′-pyrimido[4,5-b][1,4]diazepine]-2′-ylamino)-3-methoxy-N-methylbenzamide], the inhibitory constant (Ki) is less than 10 nM.
The compound `CN1C(=O)C(C)(C)CN(C2CCCC2)c2nc(Nc3ccc(N4CCOCC4)cc3)ncc21` [Compound I-63, 2-(4-morpholinophenylamino)-9-cyclopentyl-8,9-dihydro-5,7,7-trimethyl-5H-pyrimido[4,5-b][1,4]diazepin-6(7H)-one] gave a Ki of 10 to 100 nM.
`COc1cc(C(=O)NC2CCN(C)CC2)ccc1Nc1ncc2c(n1)N(C1CCCC1)CC1(CCC1)C(=O)N2C` [Compound I-64, 4-(9′-cyclopentyl-5′-methyl-6′-oxo-5′,6′,8′,9′-tetrahydrospiro[cyclobutane-1,7′-pyrimido[4,5-b][1,4]diazepine]-2′-ylamino)-3-methoxy-N-(1-methylpiperidin-4-yl)benzamide] returned an inhibition constant (Ki) of less than 10 nM.
Compound `COc1cc(C(=O)NC2CCN(C)CC2)ccc1Nc1ncc2c(n1)N(C1CCCC1)[C@H](C)CC(=O)N2C` [Compound I-65, 4-((R)-9-cyclopentyl-6,7,8,9-tetrahydro-5,8-dimethyl-6-oxo-5H-pyrimido[4,5-b][1,4]diazepin-2-ylamino)-3-methoxy-N-(1-methylpiperidin-4-yl)benzamide] yielded an inhibitory constant (Ki) of 10 to 100 nM.
`CNC(=O)c1ccc(Nc2ncc3c(n2)N([C@@H]2CCN(CC4CC4)C2)CC(C)(C)C(=O)N3C)c(OC)c1` [Compound I-66] had an inhibitory constant (Ki) of 10 to 100 nM.
Compound `COc1cc(C(=O)NC2CCN(C(C)C)CC2)ccc1Nc1ncc2c(n1)N(C1CCCC1)CC(C)(C)C(=O)N2C` [Compound I-67] came in with an inhibition constant Ki of less than 10 nM.
